Where a name gives a salt, the structure may show the parent alone.
Tests used:
A549 cells = assay: Live-cell confocal imaging of luminescent iridium(III) complex delivery; format: cell-based
Experimental: In this embodiment, suspension with the subjects was applied to the nanoneedle array at a speed of about 3.0 m/s. After treatment with the nanooneedles, the cells were grown on a sterile glass coverslip for 19 hours followed by PBS washing and then investigated by fluorescence confocal microscopy. Negligible cell death was found under microscopy in the experiments. FIG. 12a is a representative image showing the intracellular delivery of the iridium(III) polypyridine complex to A549 cells. […] In comparison, FIG. 12b is the image of the control group in which the cells were incubated with the complex for 19 hours but not treated with nanoneedles before incubation. FIGS. 12a and 12b were taken under the same microscope settings. […] (The arrows in the figures indicate the cells in which direct nucleic delivery of the luminescent complex is achieved with diamond needles treatment. The scale bars in FIGS. 12a), b), e) and f) indicate 25 μm).
The fluorescence intensities in the cytoplasm of the two selected cells were normalized to be the same value and the fluorescence intensities in the nucleus of the two cells were compared. The representative results are shown in FIG. 12c for a nanoneedle-treated cell and FIG. 12d for a cell without treatment. […] For the nanoneedle treated group, unexpectedly, a number of cells in which the fluorescence signal was almost evenly distributed in the entire cells were found. For this reason, it was not apparent to locate their nuclei (indicated by the arrows in FIGS. 12e and 12f).
A549 cells were maintained as exponentially growing cultures in a Dulbecco's modified Eagle's medium (DMEM) with 10% FBS and 1% penicillin/streptomycin at 37° C. The cells were trypsinized and suspended in DMEM medium. There are about 6×10^4 cells in one milliliter. Iridium(III) polypyridine complex was added to the cell medium at a concentration of 0.1 μM. […]
A549 cell suspension in medium/DMSO (99:1, v/v) containing [Ir(ppy)2(bpy-Et)](PF6) (0.1 μM) was prepared. […] The emission was measured using a long-pass filter at 532 nm.

[1] = system: primary hippocampal neurons; assay: Cytosolic delivery into primary hippocampal neurons by diamond nanoneedle array under centrifugation (live/dead staining); format: cell-based; details: around 300 rpm (12.8 g)
Experimental: Intracellular delivery into post-mitotic cells, such as neuron, has always been challenging. […] Compared with fibroblast cells, neurons are more vulnerable to membrane disruption induced by nanoneedle arrays. Generally, a relatively lower speed would be required to achieve similar delivery efficiency as in fibroblast cells (FIG. 6). […] Therefore, a centrifuging speed of 300-400 rpm was selected for following experiments with primary neurons. FIG. 6a are representative images of fibroblast cells after successful cytosolic delivery of EthD-1; FIG. 6b is a chart showing quantification of delivery efficiency; and FIG. 6c is a chart showing quantification of cell viability after being treated with nanoneedles arrays; all at a scale bar of 100 um.
Hippocampal neuron cultures were prepared following the method previously described. Briefly, dissociated neurons were prepared from hippocampi dissected from E18 Sprague Dawley rats by enzymatic treatment with papain (Sigma) for 30 min at 37° C. followed by trituration with a 1 ml pipette tip. Before seeding neurons, all substrates were pre-coated with polylysine (Sigma, 100 μg ml^−1) and laminin (Invitrogen, 10 μg ml^−1). Neuron cells were treated with nanoneedle arrays at 6-7 days in vitro (DIV).
Nanoneedle array was placed to float on culture medium with the needles facing toward cells. […]

NIH3T3 fibroblast cells = assay: Cytosolic delivery into fibroblast cells by diamond nanoneedle array under centrifugation (live/dead calcein AM/EthD-1 staining); format: cell-based
Source text: This kit has been widely used to characterize cell viability and cytotoxicity. In the assays, with application of nanoneedle array to cells, the membrane-permeant calcein AM enters cells and is cleaved by esterases in live cells to yield cytoplasmic green fluorescence; while the membrane-impermeant ethidium homodimer-1 (EthD-1) labels nucleic acids of membrane-disrupted cells with red fluorescence. […] In comparison, dead cells were labeled with only red fluorescence (FIG. 5). FIG. 5a are representative images of fibroblast cells after successful cytosolic delivery of EthD-1; FIG. 5b is a chart showing quantification of delivery efficiency; and FIG. 5c is a chart showing quantification of cell viability after being treated with nanoneedles arrays; all at a scale bar of 100 um.
In an embodiment, the penetration and subsequent disruption of cell membrane by nanoneedles was precisely controlled by centrifugation-induced supergravity to achieve reliable, highly efficient, diffusion based cytosolic delivery. In a specific embodiment, in order to optimize the force applied onto the cell membranes through nanoneedles, the whole setup (cell culture plus nanoneedle array) was maintained in supergravity by centrifugation at a series of speeds from 300 rpm (12.8 g, RCF) to 1000 rpm (142 g). […]

MC-3T3 cells = assay: Flow cytometry of fluorescein intracellular delivery with diamond nanocone array; format: cell-based, Mouse; details: fluorescein 1 mg/ml
Experimental: Mouse MC3T3-E1 pre-osteoblasts, which can differentiate into osteoblasts, were used in the present study. The cells were cultured at 37° C. with 5% carbon dioxide (CO2) and 95% humidified air in Dulbecco's Modified Eagle Medium (DMEM) (Gibco) supplemented with 10% fetal bovine serum (FBS) (Gibco). The medium was renewed every 2-3 days and confluent cells were subcultured through trypsinization.
Three groups of cells were studied. One group was untreated cells. Other two groups included the cells which were treated by smooth silicon substrate and diamond nanocone array. For treatment, a volume of […] MC-3T3 cell suspension was applied to the substrate with a speed of about 3 ms^−1 by a pipette (FIG. 16). After the application, the cell suspension was collected and pipetted to the substrate again with a similar speed. Such cell treatment procedure was repeated for 15 times. The same procedures were used in all experiments for enhanced intracellular delivery. Following cell treatment, cells were plated into 96-well microtiter plates. After 22 hours, morphology of each group of cells was observed by optical microscopy. After 24 hours, cell viability was determined by MTT assay.
Subsequently, the enhanced intracellular delivery capability of the diamond nanocone array was firstly assessed by investigating the fluorescence intensity of fluorescein sodium salt stain in treated cells by quantitative analysis through flow cytometry. MC-3T3 cells were harvested at a density of 10^4 cells/ml. Fluorescien was added to cell growth medium at a concentration of 1 mg/ml. After the addition of fluorescein, a volume of 1 ml of this cell suspension was treated with the same method as that described above. Two experiments were arranged in investigating the intracellular delivery of fluorescein sodium salt. In one experiment, the negative control was to apply cells to a smooth silicon substrate without the nanocone array. In the other experiment, untreated cells were used as the control (i.e. neither nanocone array nor smooth Si substrate was used). After 15 min of staining, the suspensions of control and treated group cells were pelleted by centrifugation (Spectrafuge™ 16 M, Labnet) at 6000 rpm for 3 min, after which the supernatants were removed. The cell pellets were washed by 1 mL of phosphate buffered saline (PBS) and then resuspended throughly. The cell suspensions were centrifuged again at 6000 rpm for 3 min, and the cell pelletes were washed by PBS for 3 times in total. Finally, the cell suspensions were prepared with a concentration of 10^4 cells in PBS and then immediately analysed using a flow cytometer (Becton DICKINSON, FACSCalibur cytometer) by counting 1×10^4 cells per sample. […]

[Ir(ppy)2(bpy-Et)](PF6) [iridium(III) polypyridine complex]
fluorescence signal (A549 cells; A549 cells, 0.1 μM, 19-hour incubation, not treated with nanoneedles): extremely weak | intracellular localization (A549 cells; A549 cells, 0.1 μM, nanoneedle treated, 19 hours): mainly localized in the perinuclear region | nuclear uptake (A549 cells; by diffusion, without nanoneedles): negligible nuclear uptake

ethidium homodimer-1 [EthD-1]
delivery efficiency of EthD-1 [1]: about 80% | cytosolic delivery efficiency of EthD-1 (NIH3T3 fibroblast cells; centrifugation 300 rpm): ~5% | cytosolic delivery efficiency of EthD-1 (NIH3T3 fibroblast cells; centrifugation 500 rpm or above): ~80%

O=C1OC2(c3ccc(O)cc3Oc3cc(O)ccc32)c2ccccc21 [fluorescein sodium salt]
M3, percentage of cells with fluorescence intensity 1×10^2 to 1×10^3 (MC-3T3 cells; FIG. 20, cells treated with the nanocone array): 73.5% | M2, percentage of cells with fluorescence intensity 1×10^1 to 1×10^2 (MC-3T3 cells; FIG. 20, control cells applied to smooth Si substrate): 63.1% | M3, percentage of cells with fluorescence intensity 1×10^2 to 1×10^3 (MC-3T3 cells; FIG. 21, cells treated with the nanocone array): 62.4% | M2, percentage of cells with fluorescence intensity 1×10^1 to 1×10^2 (MC-3T3 cells; FIG. 21, untreated sample (no nanocone, no Si substrate)): 70.0%

From patent US9394547B2, “Method and apparatus for delivery of molecules to cells” (CITY UNIVERSITY OF HONG KONG, priority 2012, dated 2016)
